Assay results taken from the NIST ThermoML archive (doi:10.1021/je900210h).

Conditions: Fluid (supercritical or subcritical phases), Coaxial cylinder method

FCC(F)(F)F [1,1,1,2-tetrafluoroethane]
Conditions	thermal conductivity [W/m/K]
375.18 K, 4340 kPa	0.055
375.18 K, 4942 kPa	0.0559
375.18 K, 5054 kPa	0.0557
375.18 K, 5057 kPa	0.055
375.19 K, 4163 kPa	0.0881
375.19 K, 4379 kPa	0.0546
375.19 K, 4458 kPa	0.0541
375.19 K, 4551 kPa	0.0545
375.19 K, 4557 kPa	0.0538
375.2 K, 4166 kPa	0.0849
375.2 K, 4456 kPa	0.053
375.21 K, 4170 kPa	0.0823
375.21 K, 4171 kPa	0.0814
375.23 K, 4178 kPa	0.0777
375.23 K, 4181 kPa	0.076
375.24 K, 4120 kPa	0.1016
375.24 K, 4189 kPa	0.0731
375.28 K, 4145 kPa	0.0986
375.28 K, 4150 kPa	0.1002
375.28 K, 4156 kPa	0.1002
375.28 K, 4162 kPa	0.0994
375.28 K, 4167 kPa	0.0984
375.28 K, 4208 kPa	0.0667
375.29 K, 4139 kPa	0.0943
375.29 K, 4174 kPa	0.0955
375.3 K, 4089 kPa	0.0573
375.3 K, 4181 kPa	0.0927
375.3 K, 4229 kPa	0.0627
375.31 K, 4189 kPa	0.0889
375.31 K, 4254 kPa	0.0613
375.31 K, 4265 kPa	0.061
375.31 K, 4294 kPa	0.0605
375.31 K, 4307 kPa	0.0603
375.31 K, 4341 kPa	0.06
375.32 K, 4130 kPa	0.0916
375.32 K, 4134 kPa	0.0856
375.32 K, 4197 kPa	0.0848
375.32 K, 4389 kPa	0.0592
375.32 K, 4450 kPa	0.0585
375.32 K, 4490 kPa	0.0588
375.33 K, 4129 kPa	0.087
375.33 K, 4204 kPa	0.0816
375.34 K, 3828 kPa	0.0367
375.34 K, 4085 kPa	0.0517
375.34 K, 4126 kPa	0.0773
375.36 K, 4121 kPa	0.0721
375.36 K, 4216 kPa	0.0746
375.37 K, 4128 kPa	0.0763
375.38 K, 4225 kPa	0.0686
375.39 K, 4235 kPa	0.0668
375.4 K, 4126 kPa	0.0683
375.4 K, 4244 kPa	0.0645
375.42 K, 3349 kPa	0.0298
375.42 K, 4115 kPa	0.0611
375.42 K, 4265 kPa	0.0608
375.43 K, 4051 kPa	0.0425
375.43 K, 4280 kPa	0.0596
375.43 K, 4292 kPa	0.0588
375.45 K, 4349 kPa	0.0567
375.46 K, 4029 kPa	0.0397
375.46 K, 4107 kPa	0.0545
375.46 K, 4118 kPa	0.0591
375.46 K, 4473 kPa	0.0555
375.46 K, 4527 kPa	0.055
375.46 K, 4625 kPa	0.055
375.46 K, 4681 kPa	0.0552
375.46 K, 4735 kPa	0.0582
375.48 K, 4848 kPa	0.0566
375.49 K, 4097 kPa	0.0508
375.51 K, 4107 kPa	0.0521
375.52 K, 4086 kPa	0.0475
375.53 K, 4097 kPa	0.0492
375.56 K, 4055 kPa	0.0434
375.58 K, 4040 kPa	0.0421
375.59 K, 3196 kPa	0.0287
375.6 K, 4065 kPa	0.0432
375.61 K, 3999 kPa	0.0395
375.61 K, 4059 kPa	0.0425
375.63 K, 3965 kPa	0.0378
375.65 K, 4023 kPa	0.0393
375.66 K, 3917 kPa	0.0361
375.69 K, 3874 kPa	0.0343
375.72 K, 4178 kPa	0.0857
375.72 K, 4187 kPa	0.0881
375.73 K, 3772 kPa	0.0319
375.73 K, 4179 kPa	0.083
375.73 K, 4199 kPa	0.0841
375.74 K, 4210 kPa	0.0799
375.76 K, 3000 kPa	0.0274
375.76 K, 3658 kPa	0.0306
375.76 K, 4161 kPa	0.0752
